From US9598393B2, “Structural variants of mycolactones for use in modulating inflammation, immunity and pain” (priority 2011, dated 2017) come the findings set out here.

Data set [1] deals with epithelial HeLa cell line. Description: Cytopathic activity, MTT assay (effect on global cell metabolic activity). In kind it is cell-based, human. The conditions noted are these: for Metabolic activity (MA: mean absorbance) (A) % relative to control / IC50: HeLa cells, 48 h, MTT; for IC50: Homo sapiens, % inhibition relative to control, read-out: Metabolic activity (A): IC50 value (concentration at which the compound induces 50% of mycolactone maximal activity); for Metabolic activity (A): corresponding % of mycolactone activity (in brackets): relative to mycolactone (100%). The procedure:
(A) The cytopathic activity of mycolactone and variants was assessed in a [3-(4,5-Dimethylthiazol-2-yl)-2,5-Diphenyltetrazolium Bromide] (MTT) assay, using the epithelial HeLa cell line (ATCC®; CCL-2) as a model. Briefly, HeLa cells were plated in 96-well plates (10^4 cells/well) in Dulbecco's Modified Eagle culture medium supplemented with 10% fetal calf serum and 2 mM L-Glutamine. After 16 h, mycolactone or variants dilutions (final concentration 0.4-8 μM) were added to the wells, and incubated with the cells for 48 h, prior to the addition of MTT at 50 μg/ml. After 4 h, culture supernatants were removed and the formed formazan crystals dissolved in dimethyl sulfoxide (DMSO) for absorbance measurement.
A general note: Cytopathic effects are the visible damage that an infection or toxin causes in cultured cells.

A further data set deals with HeLa cell. Description: Cytotoxicity by Trypan Blue dye exclusion (cell viability). Type of data set: cell-based, human. The procedure:
(B) HeLa cell death being negligible in the concentration and time frame conditions used in (A), the cytotoxicity of 16 μM mycolactone and variants was evaluated after 48 h of incubation by cell exclusion of the Trypan Blue dye. Here, one part of Trypan blue (0.4% in phosphate-buffered saline PBS) was mixed with one part cell suspension (recovered from cell culture wells by trypsin treatment). The mixture was incubated for 3 min at room temperature and unstained (viable) and stained (nonviable) cells counted separately with a hemacytometer.

Data set [2] relates to IL-2 production by Jurkat T cells. Description: Immunosuppressive activity: activation-induced IL-2 production, ELISA. In kind it is cell-based, human. The conditions noted are these: for Cytokine production (M.A.: mean absorbance) (C) % relative to control / IC50: Jurkat T cells; for Cytokine production (M.A.: mean absorbance) (C) % relative to control: PMA + calcium ionophore, IL-2 ELISA; for IC50: Homo sapiens, IL-2, % inhibition relative to control, read-out: Cytokine production (C): IC50 value (concentration at which the compound induces 50% of mycolactone maximal activity); for Cytokine production (C): corresponding % of mycolactone activity (in brackets): relative to mycolactone (100%). The procedure:
(C) The immunosuppressive activity of mycolactone and variants was measured on Jurkat T cells (ATCC®; TIB-152™ clone E6-1), as models of human T lymphocytes. Cells were inoculated in 96-well plates (5×10^5 cells/well in RPMI 1640 medium supplemented with 10% fetal calf serum and 2 mM L-Glutamine) then incubated with serial dilutions of the various compounds for 4 h, and stimulated for 20 h with 50 ng/ml phorbol-12-myristate-13-acetate (PMA) and 1 μg/ml calcium ionophore. The production of IL-2 was then assessed in culture supernatants by ELISA.

Data set [3] relates to CD62-L receptor expression by human peripheral blood cells (PBLs). Description: T cell homing: expression of CD62-L receptor, flow cytometry. The conditions noted are these: for CD62-L expression (MFI: mean fluorescence intensity) (D) % relative to control / IC50: human PBLs, 72 h; for IC50: T-cell, % inhibition relative to control, read-out: CD62-L expression (D): IC50 value (concentration at which the compound induces 50% of mycolactone maximal activity); for CD62-L expression (D): corresponding % of mycolactone activity (in brackets): relative to mycolactone (100%). In kind it is cell-based. Here is the method:
(D) The effect of mycolactone and variants on T cell homing was assessed through their inhibitory effect on the expression of CD62-L receptor by human peripheral blood cells (PBLs). Human PBLs were isolated from total blood by Ficoll density gradient centrifugation. They were incubated in 96-well plates (10^5 cells/well in RPMI 1640 medium supplemented with 10% fetal calf serum and 2 mM L-Glutamine) with mycolactone or variant for 72 h. Cells were then fixed for 20 min in 4% paraformaldehyde (PFA) and stained with an anti-CD62-L antibody coupled with phycoerythrin in a solution of PBS, BSA 0.5%, saponin 0.05%, then analysed by flow cytometry.

A short description of data set [4]: Formalin-induced acute pain model. In kind it is in vivo. Particulars: intraperitoneally 60 minutes before formalin; Mycolactone 0.5 mg/kg, variant 22 5 mg/kg. Here is the method:
The analgesic properties of Mycolactone and variant 22 were tested in the formalin-induced acute pain model (Encyclopedia of Psychopharmacology, Volume 2, p. 111).
Briefly, Mycolactone and variant 22 were administered intraperitoneally at 0.5 and 5 mg/kg respectively, 60 minutes before the subcutaneous injection of 10 μl of a 5% formalin solution of the right hind-leg. Two negative control groups, injected with PBS (neutral) or ethanol vehicle (vehicle) were tested in the same conditions. A group injected with 3 mg/kg morphin 15 minutes before formalin injection was used as a positive reference.
The time spent in licking/biting and the number of jumps during the early phase (0-5 min) and the late phase (10-40 min) were recorded, as indicators of acute and inflammatory pain, respectively. The graphs in FIG. 5 compare the global score of pain (rank sum of licking/biting time and jump number) in the five groups of animals (Mann-Whitney test on trimmed means; n≧6; *P<0.05 **P<0.01 vs. neutral; # P<0.05, # P<0.01 vs. vehicle.

On to `C/C(=C\[C@@H](C)[C@H](O)C[C@@H](C)O)C[C@H](C)[C@H]1C/C=C/C[C@H](C)[C@@H](O)CCCC(=O)O1` [Compound 11c, (6 S,7 S,9E,12R)-12-[(2S,4E,6R,7R,9R)-7,9-dihydroxy-4,6-dimethyldec-4-en-2-yl]-6-hydroxy-7-methyl-1-oxacyclododec-9-en-2-one], for which the “effect on the metabolic activity of HeLa cells” value in data set [1] is “showed inhibitory effect”. In addition, the “Metabolic activity (MA: mean absorbance) (A) % relative to control” value (“Metabolic activity … (A) % relative to control” below) in data set [1] (0.4 μM) was found to be 0%; in data set [1] (4 μM), 30%; in data set [1] (8 μM), 40%. The IC50 stood at 16 µM in data set [1], 8 µM in data set [2] and 16 µM in data set [3]. For the same compound, the “Metabolic activity (A): corresponding % of mycolactone activity (in brackets)” value in data set [1] is listed as 20%. Moreover, the cytotoxicity result in the data set with HeLa cell (in the conditions tested) was “not cytotoxic”. Moreover, in data set [2], the “inhibition of IL-2 production by lymphocytes” value is given as “significant inhibition”. Moreover, the “Cytokine production (M.A.: mean absorbance) (C) % relative to control” value (from here on “Cytokine production … (C) % relative to control”) in data set [2] (0.4 μM) stood at 0%; in data set [2] (4 μM), 30%; in data set [2] (8 μM) it was 50%. For the same compound, the “Cytokine production (C): corresponding % of mycolactone activity (in brackets)” value (“Cytokine production (C): corresponding %” below) in data set [2] was 1.2%. The “inhibition of CD62-L expression by lymphocytes” value in data set [3] is given as “significant inhibition”. For the same compound, the “CD62-L expression (MFI: mean fluorescence intensity) (D) % relative to control” value (“CD62-L expression … (D) % relative to control” below) came to 20% in data set [3] (4 μM) and 40% in data set [3] (8 μM). Also, the “CD62-L expression (D): corresponding % of mycolactone activity (in brackets)” value (shortened to “CD62-L expression (D): corresponding %”) in data set [3] was 0.2%.
In the case of `CC(=C\C=C\C(C)=C\[C@H](O)[C@@H](O)C[C@H](C)O)/C=C(C)/C=C/C(=O)O[C@H]1CCCC(=O)O[C@@H](C(C)C)C/C=C/C[C@@H]1C` [Compound 22, (6S,7S,9E,12R)-7-methyl-2-oxo-12-(propan-2-yl)-1-oxacyclododec-9-en-6-yl(2E,4E,6E,8E,10E,12S,13S,15S)-12,13,15-trihydroxy-4,6,10-trimethylhexadeca-2,4,6,8,10-pentaenoate], the “activity against inflammatory pain (global score of pain, late phase 10-40 min)” value in data set [4] is reported as “effective”. In addition, the “Metabolic activity … (A) % relative to control” value in data set [1] (0.4 μM), in data set [1] (4 μM) and in data set [1] (8 μM) was 0% in each case. The cytopathic effect result in data set [1] (at concentrations <16 μM) was “no cytotoxic nor cytopathic effect”. Besides, the cytotoxic effect result with HeLa cell (at concentrations <16 μM) is “no cytotoxic nor cytopathic effect”. Moreover, the “Cytokine production … (C) % relative to control” value in data set [2] (0.4 μM) is reported as 15%; in data set [2] (4 μM), 58%; in data set [2] (8 μM), 95%. Further, the figures for the IC50 in data set [2] and in data set [3] were 3 µM and 3.7 µM, respectively. Besides, the “reduction of IL-2 production” value in data set [2] (at concentrations >4 μM) was “significant reduction”. In data set [2], the “Cytokine production (C): corresponding %” value is given as 3.3%. Besides, the “CD62-L expression … (D) % relative to control” value in data set [3] (4 μM) is reported as 60%; in data set [3] (8 μM), 70%. Besides, the “reduction of CD62-L expression” value in data set [3] (at concentrations >4 μM) is given as “significant reduction”. Further, the “CD62-L expression (D): corresponding %” value in data set [3] is on record as 0.8%.
As to `CC(=C/C=C/C(C)=C/[C@H](O)[C@@H](O)C[C@@H](C)O)C=C(C)/C=C/C(=O)O[C@H]1CCCC(=O)O[C@@H]([C@@H](C)C/C(C)=C/[C@@H](C)[C@H](O)C[C@@H](C)O)C/C=C/C[C@@H]1C` (racemic) [Compound 20b, (6S,7S,9E,12R)-12-[(2S,4E,6R,7R,9R)-7,9-dihydroxy-4,6-dimethyldec-4-en-2-yl]-7-methyl-2-oxo-1-oxacyclododec-9-en-6-yl(2E,4E,6E,8E,10E,12S,13S,15R)-12,13,15-trihydroxy-4,6,10-trimethylhexadeca-2,4,6,8,10-pentaenoate], the entries for the “Metabolic activity … (A) % relative to control” value in data set [1] (0.4 μM), in data set [1] (4 μM) and in data set [1] (8 μM) were 0%, 10% and 15%, respectively. Further, the IC50 stood at 15 µM in data set [1], 4 µM in data set [2] and 8 µM in data set [3]. For the same compound, the “cytopathic activity, reduction compared to mycolactones A/B” value in data set [1] (human) is given as 4 fold. In addition, in data set [1], the “Metabolic activity (A): corresponding % of mycolactone activity (in brackets)” value stood at 23%. For the same compound, in the data set with HeLa cell (at 16 μM), the “cytotoxicity compared to mycolactones A/B” value was “equivalent cytotoxicity”. Also, the “Cytokine production … (C) % relative to control” value in data set [2] (0.4 μM) came to 20%; in data set [2] (4 μM), 55%; in data set [2] (8 μM), 92%. Also, the “Cytokine production (C): corresponding %” value in data set [2] came out at 2.5%. Besides, the “CD62-L expression … (D) % relative to control” value in data set [3] (4 μM) is recorded as 0%; in data set [3] (8 μM) it was 50%. Also, the “CD62-L expression (D): corresponding %” value in data set [3] was determined as 0.4%.
